The text below walks through data of patent US8618096B2, “Prodrug compositions and methods for using the same in treating cancer and malaria” (The Regents of the University of California, priority 2008, dated 2013).

Some results are limits rather than exact numbers.

A short description of series [1]: Fe(II) activation and drug release in vitro (LC/MS). The series is classed as physicochemical. The procedure:
In a series of experiments, the compound of Example 1 (0.03 mM) was incubated with various amounts (0-100 equivalents) of a ferrous iron salt (ferrous bromide) in a 1:1 solution of acetonitrile and an aqueous buffer at ambient temperature. Either of two buffers were used in these studies: pH 5.5 sodium acetate buffer intended to mimic a lysosomal environment or pH 7.4 phosphate buffered saline. At various time points, a 10 μl sample of the incubation mixture was removed and analyzed by liquid chromatography/mass spectroscopy (LC/MS) to identify the expected products of iron-promoted degradation and drug release. A Waters Alliance/ZQ micromass LC/MS system and a 15 min method employing gradient elution with acetonitrile-water mobile phase (containing 0.1% formic acid) was employed. In the absence of ferrous iron salts, the compound of example 1 was stable for 48 hrs, showing no detectable chemical degradation by LC/MS spectroscopy. In the presence of ferrous bromide however, the compound of example 1 was rapidly (less than 1 hour) converted into the expected ketone (analogous to G, FIG. 2) resulting from iron-promoted degradation of the trioxolane ring. Also observed was a signal attributable to the released drug species, 2,5-dichloroaniline.

Series [2] has as its system 3D7 strain of P. falciparum. Kind of series: Antimalarial activity, parasite growth in human erythrocytes (YOYO-1 flow cytometry), 3D7 strain. It is filed as cell-based. Particulars: Plasmodium falciparum, 3D7, Erythrocyte; 72 hr growth period, eight-point dose-response. The procedure: (§1) Cultures of 3D7 and W2 strains of P. falciparum parasites were grown in purified human erythrocytes and synchronous cultures were placed into 96-well plates containing test compounds. After a 72 hr growth period, cultures were fixed for 1 hr at room temperature in 1% paraformaldehyde and stained with 50 nM YOYO-1 for about 24 hr in the dark. Samples were analyzed on a Becton-Dickinson LSR2 fitted with a microplate reader. Uninfected erythrocytes were used to determine background autofluorescence. Parasite growth in each sample was determined relative to infected erythrocytes without test compound. “Eight-point dose-response curves were generated and EC50 values determined using GRAPHPAD PRISM® software”.

Series [3] has as its system W2 strain of P. falciparum. Kind of series: Antimalarial activity, parasite growth in human erythrocytes (YOYO-1 flow cytometry), W2 strain. The series is classed as cell-based. The following applies: Plasmodium falciparum, W2, Erythrocyte; 72 hr growth period, eight-point dose-response. The procedure: as §1
On the technique in general: In flow cytometry, cells or beads pass a laser one at a time.

The subject of series [4] is W2 strain P. falciparum parasites. Kind of series: Evaluation of drug release in cells: food vacuole phenotype in Giemsa-stained blood smears. The series is classed as cell-based, Plasmodium falciparum. Particulars: 24 hrs, ring stage W2 parasites. The procedure: Cmpd 72 is the prodrug form of a parasite cysteine protease inhibitor, specifically an inhibitor of the proteases falcipain-2 and falcipain-3 from the malaria parasite Plasmodium falciparum. […] Thus, observation of the food vacuole phenotype upon treatment of cultured P. falciparum parasites with the protease inhibitor prodrug would constitute positive evidence for release of the free drug inside the parasite.
Synchronized W2 strain P. falciparum parasites (ring stage) were grown as described herein and incubated in the presence of test and control compounds for 24 hrs. Next, a blood smear was made, fixed with methanol, and stained with Giemsa, as known in the art. Parasites were then imaged at 100× magnification to identify the presence or absence of the food vacuole phenotype.

In the case of `O=C(CCC1(CCOC(=O)Nc2cc(Cl)ccc2Cl)OOC2(O1)C1CC3CC(C1)CC2C3)NCCN1CCOCC1` (stereo not drawn) [Cmpd 40, 2-(5,5-spiroadamantyl-3-(3-(2-morpholinoethylamino)-3-oxopropyl)-1,2,4-trioxolan-3-yl)ethyl-2,5-dichlorophenylcarbamate], in series [1] (0.03 mM, in the presence of ferrous bromide, 1:1 acetonitrile and aqueous buffer, ambient temperature), the “time of conversion into the expected ketone (iron-promoted degradation of the trioxolane ring)” value is recorded as “less than 1 hour”. In addition, the “stability in the absence of ferrous iron salts (no detectable chemical degradation by LC/MS)” value in series [1] (48 h, 0.03 mM) is no less than 48 h. For the same molecule, the “release of drug species 2,5-dichloroaniline” value in series [1] (in the presence of ferrous bromide, during the course of the experiment, LC/MS) was “the quantity of 2,5-dichloroaniline increased”. Also, the EC50 (as a rule, the concentration at which the effect is half-maximal) came to 16 nM in series [2] and 24 nM in series [3].
As to `O=C(CCC1(CCOC(=O)N2CCN(c3ccccc3)CC2)OOC2(O1)C1CC3CC(C1)CC2C3)NCCN1CCOCC1` (stereo not drawn) [Cmpd 45, 2-(5,5-spiroadamantyl-3-(3-(2-morpholinoethylamino)-3-oxopropyl)-1,2,4-trioxolan-3-yl)ethyl 4-phenylpiperazine-1-carboxylate], the EC50 in series [2] turned out to be 9 nM; in series [3], 4.9 nM.
In the case of `CN(Cc1ccccc1)C(=O)OCCC1(CCC(=O)NCCN2CCOCC2)OOC2(O1)C1CC3CC(C1)CC2C3` (stereo not drawn) [Cmpd 47, 2-(5,5-spiroadamantyl-3-(3-(2-morpholinoethylamino)-3-oxopropyl)-1,2,4-trioxolan-3-yl)ethyl benzyl(methyl)carbamate], the EC50 in series [2] amounted to 16 nM; in series [3], 15 nM.
On to `O=C(CCC1(CCOC(=O)N(CCCNc2ccnc3cc(Cl)ccc23)Cc2ccco2)OOC2(O1)C1CC3CC(C1)CC2C3)NCCN1CCOCC1` (stereo not drawn) [Cmpd 48, 2-(5,5-spiroadamantyl-3-(3-(2-morpholinoethylamino)-3-oxopropyl)-1,2,4-trioxolan-3-yl)ethyl 3-(7-chloroquinolin-4-ylamino)propyl(furan-2-ylmethyl)carbamate], for which the results for the EC50 in series [2] and in series [3] were 38 nM and 62 nM, respectively.
In the case of `O=C(CCC1(CCO)OOC2(O1)C1CC3CC(C1)CC2C3)NCCCN1CCCC1=O` (stereo not drawn) [Cmpd 58, 3-(3-(2-hydroxyethyl)-5,5-spiroadamantyl-1,2,4-trioxolan-3-yl)-N-(3-(2-oxopyrrolidin-1-yl)propyl)propanamide], in series [4] (1.1 uM, FIG. 3C-E), the “food vacuole phenotype (falcipain inhibition)” value was “does not produce the protease-inhibited phenotype”.
Regarding `CC(C)(C[C@H](NC(=O)N1CCOCC1)C(=O)N[C@H](/C=C/S(=O)(=O)c1ccccc1)CCc1ccccc1)OC(=O)OCCC1(CCC(=O)NCCCN2CCCC2=O)OOC2(O1)C1CC3CC(C1)CC2C3` (stereo partly drawn) [Cmpd 72], in series [4] (1.1 uM, FIG. 3C-E), the “food vacuole phenotype (falcipain inhibition)” value is listed as “does produce the falcipain-inhibited phenotype”.
In the case of `CC(C)C[C@H](NC(=O)[C@H]1O[C@@H]1C(=O)O)C(=O)NCCCCN=C(N)N` [E64, reference compound], the “food vacuole phenotype (falcipain inhibition)” value in series [4] (3.3 uM, FIG. 3B) is “swollen, dark-staining food vacuole”.
In the case of `CC(C)(O)C[C@H](NC(=O)N1CCOCC1)C(=O)N[C@H](/C=C/S(=O)(=O)c1ccccc1)CCc1ccccc1` [N—((S)-4-hydroxy-4-methyl-1-oxo-1-((S,E)-5-phenyl-1-(phenylsulfonyl)pent-1-en-3-ylamino)pentan-2-yl)morpholine-4-carboxamide, reference compound], the “food vacuole phenotype (falcipain inhibition)” value in series [4] (1.1 uM, FIG. 3C-E) was “swollen, dark-staining food vacuole”.
